According to the supplement of paper PMC10307832:

Key:
Test in all cases: relative viability (nuclei count vs DMSO), 5 days (fraction); higher = more cells survive
[1] = test system: NCI-H23
Outline: (§1)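 Lung cancer cell lines were pin-tool dosed in 1536-well plates on the day after seeding, with either a lone drug or a fixed anchor-drug dose plus five library-drug doses (not always all listed) in √10 steps. Nuclei were counted on 4× images after 5 days. Relative viability is the ratio of treated-well to vehicle-well nuclei counts, with each value a median of duplicate plates.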

[2] = test system: HOP-62
Outline: as §1

[3] = test system: ABC-1
Outline: as §1

[4] = test system: NCI-H1395
Outline: as §1

[5] = test system: NCI-H2126
Outline: as §1

[6] = test system: NCI-H1944
Outline: as §1

[7] = test system: HCC-78
Outline: as §1

[8] = test system: NCI-H1993
Outline: as §1

[9] = test system: HCC-366
Outline: as §1

[10] = test system: EMC-BAC-2
Outline: as §1

[11] = test system: LC-2-ad
Outline: as §1

COc1cc2nccc(Oc3ccc(NC(=O)Nc4cc(C)on4)c(Cl)c3)c2cc1OC [Tivozanib] + N=C(N)NC(=N)NCCc1ccccc1 [Phenformin] (partner 250 µM)
relative viability ([1]; first compound 0.005 µM): 0.727 | relative viability ([1]; first compound 0.01581 µM): 0.824 | relative viability ([1]; first compound 0.05 µM): 0.783 | relative viability ([1]; first compound 0.1581 µM): 0.752 | relative viability ([1]; first compound 0.5 µM): 0.809 | relative viability ([2]; first compound 0.005 µM): 0.611 | relative viability ([2]; first compound 0.01581 µM): 0.626 | relative viability ([2]; first compound 0.05 µM): 0.66 | relative viability ([2]; first compound 0.1581 µM): 0.704 | relative viability ([2]; first compound 0.5 µM): 0.714 | relative viability ([3]; first compound 0.005 µM): 0.236 | relative viability ([3]; first compound 0.01581 µM): 0.246 | relative viability ([3]; first compound 0.05 µM): 0.268 | relative viability ([3]; first compound 0.1581 µM): 0.201 | relative viability ([3]; first compound 0.5 µM): 0.24 | relative viability ([4]; first compound 0.005 µM): 0.357 | relative viability ([4]; first compound 0.01581 µM): 0.475 | relative viability ([4]; first compound 0.05 µM): 0.444 | relative viability ([4]; first compound 0.1581 µM): 0.426 | relative viability ([4]; first compound 0.5 µM): 0.383 | relative viability ([5]; first compound 0.005 µM): 0.486 | relative viability ([5]; first compound 0.01581 µM): 0.546 | relative viability ([5]; first compound 0.05 µM): 0.553 | relative viability ([5]; first compound 0.1581 µM): 0.516 | relative viability ([5]; first compound 0.5 µM): 0.528 | relative viability ([6]; first compound 0.005 µM): 0.189 | relative viability ([6]; first compound 0.01581 µM): 0.202 | relative viability ([6]; first compound 0.05 µM): 0.208 | relative viability ([6]; first compound 0.1581 µM): 0.21 | relative viability ([6]; first compound 0.5 µM): 0.188 | relative viability ([7]; first compound 0.005 µM): 0.619 | relative viability ([7]; first compound 0.01581 µM): 0.658 | relative viability ([7]; first compound 0.05 µM): 0.85 | relative viability ([7]; first compound 0.1581 µM): 0.529 | relative viability ([7]; first compound 0.5 µM): 0.655 | relative viability ([8]; first compound 0.005 µM): 0.503 | relative viability ([8]; first compound 0.01581 µM): 0.507 | relative viability ([8]; first compound 0.05 µM): 0.51 | relative viability ([8]; first compound 0.1581 µM): 0.558 | relative viability ([8]; first compound 0.5 µM): 0.52 | relative viability ([9]; first compound 0.005 µM): 0.615 | relative viability ([9]; first compound 0.01581 µM): 0.588 | relative viability ([9]; first compound 0.05 µM): 0.632 | relative viability ([9]; first compound 0.1581 µM): 0.643 | relative viability ([9]; first compound 0.5 µM): 0.611 | relative viability ([10]; first compound 0.005 µM): 0.48 | relative viability ([10]; first compound 0.01581 µM): 0.519 | relative viability ([10]; first compound 0.05 µM): 0.51 | relative viability ([10]; first compound 0.1581 µM): 0.428 | relative viability ([10]; first compound 0.5 µM): 0.441 | relative viability ([11]; first compound 0.005 µM): 0.593 | relative viability ([11]; first compound 0.01581 µM): 0.548 | relative viability ([11]; first compound 0.05 µM): 0.579 | relative viability ([11]; first compound 0.1581 µM): 0.514
